Measurements reported in patent US20130289070A1, “Use of Levocabastine for Modulating Generation of Pro-Inflammatory Cytokines” (Bausch & Lomb Incorporated, priority 2007, published 2013).

System: EoL-1 (human eosinophilic leukaemia cell line) cells
Assay: TNF-α-induced cytokine release, differentiated and non-differentiated EoL-1 cells
Assay type: cell-based
Procedure: EoL-1 (human eosinophilic leukaemia cell line) cells (Saito et al., 1985; Mayumi, 1992) were maintained in RPMI-1640 medium with L-glutamine supplemented with 10% (v/v) FBS at 37° C. in a humidified atmosphere with 5% CO2. Where indicated, 24 h before the experiment 25 ng/mL PMA ((phorbol 12-myristate 13-acetate, purchased from Sigma Aldrich) was added to the medium to induce eosinophil granulation and differentiation (Ohtsu et al., 1993; Zimmermann et al., 2000). Half-million cells were aliquoted per point in a 24 well plate; each experiment was performed in triplicate and carried out in parallel with eosinophils differentiated and non differentiated with PMA (25 ng/mL, 24 h). Cells were suspended in low serum medium (RPMI-1640, 0.1% (v/v) FBS). TNF-α was used to induce cytokine secretion as previously described by Steube et al. (2000), and the net release was obtained by comparison to the basal (non-TNF-α treated). In the first experiment we evaluated the concentration and time relation between TNF-α stimulation and cytokine release. […] An aliquot of 150 μL of supernate was collected for cytokines' analysis. […] Differentiated and non-differentiated EoL-1 cells were exposed from 0.1 to 2.3 mM levocabastine ([…]Levocabastine 0.05% solution eye drops containing cyclodextrins, without benzalkonium chloride), and aliquots of the supernates were collected after 12 and 24 h. The content of cytokines at time zero was estimated by treating the cells with 400 nM calcimycin (A-23187), which is a cytolytic agent that frees all the mediators from the cytoplasmic compartment. In addition, for each experiment we tested the effect of the vehicle, which was added to the wells in a concentration equal to the maximum amount used for drug dilution. Samples (supernates 12 and 24 h) in triplicate were analyzed using Luminex 200™ (Luminex, Austin, Tex.) and Beadview software v1.0 (Upstate Cell Signaling Solutions, Temecula, Calif.). All data are presented as mean±SEM for the indicated number of experiments. Statistical significance was determined by Newman-Keuls test after ANOVA using GraphPad Prism (version 3.0; GraphPad Software Inc., San Diego, Calif., USA).

[1] = TNF-α challenge, text summary of Tables T-1, T-2
[2] = overall conclusion, in a concentration-dependent manner
[3] = overall conclusion, in a concentration-dependent way

## C[C@@H]1CN([C@H]2CC[C@](C#N)(c3ccc(F)cc3)CC2)CC[C@]1(C(=O)O)c1ccccc1 [Levocabastine, levocabastine]
2 mM, TNF-α 10 ng, 24 h, without PMA or differentiated with it, not influenced by VCAM-1 or fibronectin (FIG. 10)
  release of IL-12p40 induced by TNF-α: effective in reducing the release
2 mM, TNF-α 10 ng, 24 h, without PMA or differentiated with it, not influenced by VCAM-1 or fibronectin (FIG. 14)
  release of VEGF induced by TNF-α: effective in reducing the release
2 mM, TNF-α 5, 10 and 20 ng, 12 h, without PMA or differentiated with it (FIG. 5)
  release of IL-12 P40 induced by TNF-α: capable of reducing the release
2 mM, TNF-α 5, 10 and 20 ng, 24 h, without PMA or differentiated with it (FIG. 6)
  release of VEGF induced by TNF-α: capable of reducing the release
2 mM, TNF-α 5, 10 and 20 ng, 24 h, without PMA or differentiated with it (FIG. 8)
  release of VEGF induced by TNF-α: capable of reducing the release
0.1, 0.5 and 1.0 mM, 12 h, without PMA or differentiated with it (FIG. 1)
  release of IP-10 induced by TNF-α: capable to prevent the release
0.1, 0.5 and 1.0 mM, 24 h, without PMA or differentiated with it (FIG. 4)
  release of VEGF induced by TNF-α: capable to prevent the release
PMA differentiated and indifferentiated EoL-1 cells, after TNF-α challenge
  VEGF release (FIG. 14): able to reduce
[1]
  release of IL-1β: significantly reduce
  release of IP-10: significantly reduce
Overall conclusion
  TNF-α-induced release of IL-8: statistical significant reduction
  TNF-α-induced release of IL-12p40: statistical significant reduction
  TNF-α-induced release of VEGF: statistical significant reduction
Overall conclusion, following TNF-α stimulation
  cytokine release, general effect: concentration-related reduction
[2]
  release of IL1-ra: significantly reduced
  release of IL-1β: significantly reduced
  release of IP-10: significantly reduced
[3]
  secretion of MIP-1α: increasing the secretion
  secretion of RANTES: increasing the secretion
